From the CheMixHub ionic liquid set
± gives the uncertainty stated by the source.

Assay: xn = mol fraction of the nth substance listed

Row | electrical conductivity (303.15 K, 100 kPa, x2 = 0.01476) | electrical conductivity (303.15 K, 100 kPa, x2 = 0.03394) | electrical conductivity (303.15 K, 100 kPa, x2 = 0.0417) | electrical conductivity (303.15 K, 100 kPa, x2 = 0.05414) | SMILES | electrical conductivity (293.15 K, 101 kPa, frequency 0.00293 MHz, x2 = 0) | viscosity (293.15 K, 101 kPa, x2 = 0) | electrical conductivity (298.15 K, 101 kPa, frequency 0.00293 MHz, x2 = 0) | viscosity (298.15 K, 101 kPa, x2 = 0) | electrical conductivity (313.15 K, 101 kPa, frequency 0.00293 MHz, x2 = 0) | viscosity (313.15 K, 101 kPa, x2 = 0) | electrical conductivity (323.15 K, 101 kPa, frequency 0.00293 MHz, x2 = 0) | viscosity (323.15 K, 101 kPa, x2 = 0)
1 |  |  |  |  | CC[NH3+].O=[N+]([O-])[O-] + CC[NH+](CC)CC.O=[N+]([O-])[O-] | 1.93 S/m | 43.5 mPa·s | 2.25 S/m | 36.5 mPa·s | 3.37 S/m | 22.8 mPa·s | 4.22 S/m | 17.6 mPa·s
2 | 0.000353 ± 1.4e-05 S/m | 0.000354 ± 1.4e-05 S/m | 0.000355 ± 1.4e-05 S/m | 0.000356 ± 1.4e-05 S/m | CCC(=O)[O-].OCC[NH2+]c1ccccc1 + O |  |  |  |  |  |  |  | 
